Series [1] addresses T1, human A1 adenosine receptor (Homo sapiens, UniProt P30542).
T1 sequence (P30542 1-326): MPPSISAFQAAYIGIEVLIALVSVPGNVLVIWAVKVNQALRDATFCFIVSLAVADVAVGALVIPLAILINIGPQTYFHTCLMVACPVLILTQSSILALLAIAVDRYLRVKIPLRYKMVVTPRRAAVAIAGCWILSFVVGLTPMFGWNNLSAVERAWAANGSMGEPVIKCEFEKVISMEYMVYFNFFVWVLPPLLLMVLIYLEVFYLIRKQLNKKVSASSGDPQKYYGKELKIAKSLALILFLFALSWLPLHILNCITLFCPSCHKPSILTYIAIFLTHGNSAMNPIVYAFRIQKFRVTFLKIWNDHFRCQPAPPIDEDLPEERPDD
The note with it: cited from earlier work.

In series [2] the target is T2, human A2a receptor subtype (Homo sapiens, UniProt P29274).
T2 construct: expressed in transfected cells; host or cells: HEK-293 (Cadus clone #5)
T2 sequence (P29274 whole entry): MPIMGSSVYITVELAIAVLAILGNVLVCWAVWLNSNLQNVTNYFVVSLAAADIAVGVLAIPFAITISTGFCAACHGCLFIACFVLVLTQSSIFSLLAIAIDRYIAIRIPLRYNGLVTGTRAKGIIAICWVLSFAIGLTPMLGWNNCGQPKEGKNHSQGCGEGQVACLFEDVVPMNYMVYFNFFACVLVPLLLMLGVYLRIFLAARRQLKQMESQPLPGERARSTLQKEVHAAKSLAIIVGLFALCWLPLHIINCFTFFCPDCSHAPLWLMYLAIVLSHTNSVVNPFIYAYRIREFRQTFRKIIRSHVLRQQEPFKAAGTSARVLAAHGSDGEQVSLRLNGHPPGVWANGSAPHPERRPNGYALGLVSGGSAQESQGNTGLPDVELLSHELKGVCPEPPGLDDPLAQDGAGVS
Description: Adenosine 2a receptor subtype competition radioligand binding, [3H]CGS-21680, HEK293 membranes. As to conditions: @ 10 μM.

Series [3] addresses T3, human A1 receptor subtype (Homo sapiens, UniProt P30542).
T3 sequence (P30542 1-326): T1 sequence (P30542 1-326)

Series [4] deals with T4, human A3 receptor subtype (Homo sapiens, UniProt P0DMS8).
T4 construct: expressed in transfected cells; host or cells: HEK293
T4 sequence (P0DMS8 1-318): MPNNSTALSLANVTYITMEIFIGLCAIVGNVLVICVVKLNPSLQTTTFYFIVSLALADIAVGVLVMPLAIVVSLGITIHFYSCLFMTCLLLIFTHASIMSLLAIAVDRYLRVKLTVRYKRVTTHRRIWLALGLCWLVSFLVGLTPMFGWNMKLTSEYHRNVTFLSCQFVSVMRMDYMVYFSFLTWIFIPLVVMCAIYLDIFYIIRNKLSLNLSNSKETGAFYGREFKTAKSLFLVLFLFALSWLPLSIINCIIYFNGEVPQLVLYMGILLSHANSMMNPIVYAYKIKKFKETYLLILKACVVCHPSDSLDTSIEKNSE
The series is described as follows: Adenosine 3 receptor competition radioligand binding, [125I]AB-MECA, HEK293 membranes. As to conditions: for properties relative to compound 1720: A3 affinity, A3/A1 selectivity, solubility as in Table 3.

Regarding `CC(Cc1ccccc1)Nc1ncnc2c1ncn2C1OC(CO)C(O)C1O` (single isomer, unassigned; (-)) [R-PIA, (−)-N6-(2-phenylisopropyl)-adenosine], the reported affinity result in series [1] is recorded as “approximately 50 nM”.

`CNC(=O)NCCCNc1nc(-c2ccccc2)nc2[nH]c(C)c(C)c12` [Compound 1310]: in series [2], the “% activity A2a” value is reported as 76%.

With `NC(=O)[C@@H]1C[C@@H](O)CN1c1nc(-c2ccccc2)nc2[nH]ccc12` [Compound 1631, (2S, 4R)-4-Hydroxy-1-(2-phenyl-7H-pyrrolo[2,3-d]pyrimidin-4-yl)-pyrrolidine-2-carboxylic acid amide methane sulfonate], in series [3], the “A1 receptor binding affinity relative to reference compounds 1318 or 1319” value is recorded as “equaled or surpassed”.

The molecule `c1ccc(-c2nc(NCCc3cnc[nH]3)c3cc[nH]c3n2)cc1` [Compound 1720, [2-(3H-Imidazol-4-yl)-ethyl]-(2-phenyl-7H-pyrrolo[2,3-d]pyrimidin-4-yl)-amine] showed a melting point of 234 to 235 °C. Further, in series [4] (relative to reference compound 1308), the “A3 receptor binding affinity relative to reference compound 1308” value is listed as “greater than 10 times”.

With `Clc1cccc(-c2nc(NCCc3cnc[nH]3)c3cc[nH]c3n2)c1` [Compound 1721], in series [4], the “properties relative to compound 1720” value is on record as “superior” and the “Binding Affinity for A3 receptor relative to compound 1720” value is “Higher”.

In turn, `Clc1cccc(-c2nc(NCCc3ccccn3)c3cc[nH]c3n2)c1` [Compound 1722] showed a melting point of 199 to 200 °C.

Molecule `Clc1cccc(-c2nc(NCCCn3ccnc3)c3cc[nH]c3n2)c1` [Compound 1723] yielded a melting point of 183 to 185 °C.

Consider `Cc1cc2c(NCCc3c[nH]cn3)nc(-c3cccc(Cl)c3)nc2[nH]1` [Compound 1731], for which, in series [4], the “properties relative to compound 1720” value was “superior” and the “Binding Affinity for A3 receptor relative to compound 1720” value is reported as “Similar”.

Regarding `c1ccc(-c2nc(N3CCc4nc[nH]c4C3)c3cc[nH]c3n2)cc1` [Compound 1733], in series [4], the “properties relative to compound 1720” value is “superior” and the “Binding Affinity for A3 receptor relative to compound 1720” value is “Similar”.

Source of the values: patent US7504407B2, “Compounds specific to adenosine A1 and A3 receptors and uses thereof” (OSI Pharmaceuticals, Inc., priority 2001, dated 2009).
